Patent US20260158008A1, “POLYMORPHS OF THE MESYLATE SALT OF LINAPRAZAN GLURATE” (Cinclus Pharma Holding AB (Publ), priority 2021, published 2026)
Where two headings read alike, the source gives them in different places.

Columns and labels:
[1] = cited from earlier work
[2] = Dynamic vapour sorption (DVS) analysis, hygroscopicity / water content; assay type: physicochemical
Protocol: Analyses were performed on an SMS DVS-1 instrument.
(§1) Method 1: A few mg of the substance was added into an Al pan and exposed to stepwise RH changes during two identical consecutive cycles according to 0-10-20-30-40-50-60-70-80-90-80-70-60-50-40-30-20-10-0% RH using open loop mode. The experiments were performed using a gas flow rate of 200 ml/min and at 25° C. The dm/dt criteria applied were 0.001 weight-%/min during a 5-minutes window, with a maximum allowed time of 360 minutes and a minimum allowed time of 10 minutes for all steps, except for the first stage which was set to a 12-hours fix time.
as §1, with “2:” for “1:”, “steps.” for “steps, except for the first stage which was set to a 12-hours fix time.”
as §1, with “3:” for “1:”, “6-hours” for “12-hours”
The hygroscopicity of sample 1 of Form A (obtained from a slurry in 2-propanol) was investigated using method 1. […]
For sample 2 of Form A (obtained from a slurry in acetone), a TGA-dried sample was investigated using method 2. […] In the second cycle, “pure” water absorption and desorption is recorded. […]

[3] = up to 24 hours
Protocol: The solubility of Form A in Fed State Simulated Gastric Fluid (FEDGAS) mid stage, second version of Fasted State Simulated Intestinal Fluid (FaSSIF-V2) and second version of Fed State Simulated Intestinal Fluid (FeSSIF-V2) was studied.
To 90 mL of Milli Q water were added 139 mg of NaOH, 222 mg of maleic acid and 401 mg of NaCl and the resulting mixture was stirred until fully dissolved. The pH was adjusted to 6.5 with 1 M HCl and 1 M NaOH, and made up to 100 mL with Milli Q water. 179 mg of FaSSIF-V2 (Biorelevant, batch V2FAS-1020-A) was mixed with the prepared 100 ml of buffer, stirred until fully dissolved and equilibrated at RT for 1 hour before use.
To 90 ml of Milli Q water were added 327 mg of NaOH, 639 mg of maleic acid and 733 mg of NaCl and the resulting mixture was stirred until fully dissolved. The pH was adjusted to 5.8 with 1 M HCl and 1 M NaOH, and made up to 100 mL with Milli Q water. 976 mg of FeSSIF-V2 (Biorelevant, batch V2FES-1020-A) was mixed with the prepared 100 ml of buffer, stirred until fully dissolved and equilibrated at RT for 1 hour before use. […]
Saturated solutions were prepared in 4 ml vials by adding fixed weights (excess amounts) of Form A to 2 mL of each of the different buffer solutions. […] Concentrations were calculated from a calibration curve based on 7 calibration standards (stock solutions of 100 and 250 μg/mL, and serial dilutions thereof).

[4] = XRPD check of solid form after TGA or DVS; assay type: physicochemical
Protocol: Analyses were performed on a PanAlytical X'Pert Pro diffractometer equipped with a Cu-anode (45 kV, 40 mA), a Kα-1 Johansson monochromator (1.540598 Å) and a Pixcel detector. The 2-theta range was 2-35°, using a step size of 0.013° and a scan speed of 0.10°/s (“6 minutes scan”) or 0.03°/s (“20 minutes scan”). Slow spinning sample holders were used. The samples were smeared out on zero background wafers of Si, producing a flat powdered surface. The measurements were performed using a programmable incident divergency slit.
Method 1: A few mg of sample was gently charged into open Pt-pans and analysed by weight in a flow of dry nitrogen gas (20 mL/min), to ensure an inert atmosphere, from 25 to 140° C. using a continuous scan speed of 10° C./min, followed by an isothermal step at 140° C. for 60 minutes (ended manually if the drying process was completed before 60 minutes).
as §1, with “2:” for “1:”, “steps.” for “steps, except for the first stage which was set to a 12-hours fix time.”

[5] = Plasma concentration after oral administration of linaprazan glurate; assay type: in vivo, human
gastric acid production [6] = settings: cited from earlier work
gastric acid production [7] = settings: cited from earlier work; remark: listed apart in the source

In the case of Cc1cccc(C)c1CNc1cc(C(=O)NCCOC(=O)CCCC(=O)O)cn2c(C)c(C)nc12 [Form A (free base)], the solubility in water ([1]; pH 1) is given as “only slightly soluble” and the solubility in water ([1]; pH 6.8) is given as “practically insoluble”.
In the case of CS(=O)(=O)O.Cc1cccc(C)c1CNc1cc(C(=O)NCCOC(=O)CCCC(=O)O)cn2c(C)c(C)nc12 [Form A], the “water uptake with relative humidity” value ([2]; 0 to 90% RH, 25° C.) is reported as “increases almost linearly with increasing relative humidity”, the “stability at relative humidity” value ([2]; relative humidity up to 90%, 25° C.) is reported as “stable” and the “solubility in FEDGAS relative to FaSSIF-V2” value ([3]; FEDGAS mid stage pH 4.5 vs FaSSIF-V2 pH 6.5, 37° C.) is reported as “about 20 times higher”. The “solubility in FEDGAS relative to FeSSIF-V2” value ([3]; FEDGAS mid stage pH 4.5 vs FeSSIF-V2 pH 5.8, 37° C.) was “about 7 times higher”, the “solid form after the TGA experiment (XRPD)” value ([4]; after heating 25 to 140° C., TGA method 1) was “this form remained” and the “solid form after the DVS-analysis (XRPD)” value ([4]; after two cycles 0-90% RH, 25° C.) was “this form remained”.
In the case of Cc1cccc(C)c1CNc1cc(C(=O)NCCO)cn2c(C)c(C)nc12 [linaprazan], the concentration at 22 h ([5]; human, plasma, oral, after 22 hours, estimated from Phase I studies of linaprazan glurate, read-out: minimal plasma concentration (Cmin) of linaprazan required to maintain intra-gastric pH above 4 for 24 hours) is listed as ≥ 240 nM, the onset of action (gastric acid production [6]; Phase I and II studies) is listed as “fast onset of action and full effect at first dose” and the tolerability (gastric acid production [6]; Phase I and II studies) is listed as “well tolerated”. The “duration of acid inhibition” value (gastric acid production [6]; in vivo) was “too short duration of acid inhibition” and the elimination (gastric acid production [6]; in vivo) was “quickly eliminated from the body”.
In the case of CS(=O)(=O)O.Cc1cccc(C)c1CNc1cc(C(=O)NCCOC(=O)CCCC(=O)O)cn2c(C)c(C)nc12 [Form B], the water content ([2]; at 80% RH) is reported as “about 3.4%”.
In the case of Cc1cccc(C)c1CNc1cc(C(=O)NCCOC(=O)CCCC(=O)O)cn2c(C)c(C)nc12 [linaprazan glurate, 5-{2-[({8-[(2,6-dimethylbenzyl)amino]-2,3-dimethylimidazo[1,2-a]pyridine-6-yl}carbonyl)-amino]ethoxy}-5-oxopentanoic acid], the “metabolism following absorption into the blood stream” value ([5]; in vivo) is given as “quickly metabolized into linaprazan”, the plasma concentration ([5]; in vivo) is given as “only very low and difficult to determine” and the “control of gastric acid production compared to linaprazan” value (gastric acid production [7]; human, in vivo) is given as “total control of the gastric acid production for a longer time”. The “half-life in the body compared to linaprazan” value (gastric acid production [7]; human, in vivo) was “longer half-life in the body” and the “time for which intragastric acidity is maintained above pH 4” value (gastric acid production [7]; single dose, clinical Phase I study) was 24 hours.
